These results are taken from article PMC3446921, “Enhanced Solubilisation of Six PAHs by Three Synthetic Cyclodextrins for Remediation Applications: Molecular Modelling of the Inclusion Complexes” (PLoS ONE, 2012).

Series [1] can be described thus: Phase solubility studies: comparison of the six PAHs across the three CDs. To be noted: for Decreasing order of Se and Kc: per CD; for Decreasing order of PAHs apparent solubility: reached with 0.1 M of the CD.
Series [2] can be described thus: PAHs aqueous solubility in the absence of CD. To be noted: 25 °C, water, thermodynamic from solid.
Experimental: (§1) 5 mg of each PAH were added to aqueous solutions (10 mL) containing increasing dissolved concentrations (from 0 to 0.1 M) of each CD. The experiments were carried out in triplicate. Flasks were sealed and shaken at 25°C for 1 week. The concentration of each PAH in solution was determined using a Shimadzu HPLC chromatograph equipped with a chromatographic column, Kromasil 100 C18 reverse-phase (5 µm, 15×0.4), coupled to a fluorescence detector (Shimadzu RF-10APXL). The chromatographic conditions were as follows: mobile phase, acetonitrile/water (60∶40); flow, 1.5 mL min^−1; temperature, 30°C. […] To obtain the phase solubility diagrams, the concentration of the PAHs dissolved versus the increasing concentrations of the CDs used were represented.
Series [3] can be described thus: Phase solubility studies (Higuchi and Connors) with RAMEB. As to conditions: for Apparent stability constant Kc: RAMEB 0 to 0.1 M, 1:1 complex, 25°C; for solubility at 1 week: 25 °C, aqueous with cosolvent or surfactant or cyclodextrin, thermodynamic from solid.
A short description of series [4]: Phase solubility studies (Higuchi and Connors) with HP-β-CD. To be noted: for Apparent stability constant Kc: HP-β-CD 0 to 0.1 M, 1:1 complex, 25°C.
Series [5] in a line: Phase solubility studies (Higuchi and Connors) with HP-γ-CD. As to conditions: HP-γ-CD 0 to 0.1 M; 1:1 complex; 25°C.
The conditions of series [6]: ref [40], cited from earlier work.
The nature of series [7]: physchem. As to conditions: 25 °C, aqueous with cosolvent or surfactant or cyclodextrin, thermodynamic from solid.
A short description of series [8]: physchem. To be noted: 25 °C, water, thermodynamic from solid.
Experimental: as §1
For series [9] the following is noted: 1 week.
Experimental: as §1

Values after ≈ are worked out from the molar mass of the structure shown. Values joined by “and” are separate entries in the source; they are usually repeats but may differ in a detail not shown here. Equal values may be shown once.

As for 2-Hydroxypropyl-β-CD [HP-β-CD], in series [1], the “Decreasing order of Se and Kc” value is given as “PHE>ANT>FLT>FLU>PYR>ACE”; the “Decreasing order of PAHs apparent solubility” value is “PHE≥FLU>ACE>FLT>ANT>PYR”.

`c1cc2c3c(cccc3c1)CC2` [ACE, acenaphthene]: the solubility at 1 week in [2] was 1.93 µg/mL (≈ 12.5 µM); in series [1] (25 °C, aqueous with cosolvent or surfactant or cyclodextrin, thermodynamic from solid), 125 to 147 µg/mL (≈ 811 to 953 µM). Also, the “Apparent stability constant Kc” value in series [3] is given as 644 (±12) M^−1; in series [4], 661 (±35) M^−1; in series [5] it was 758 (±41) M^−1.

Consider `c1ccc2cc3ccccc3cc2c1` [ANT, anthracene], for which, in [6] (γ-CD, [42]), the “Kc with γ-CD” value is 240 to 330 M⁻¹. Also, the values for the solubility at 1 week in [2] and in series [3] were 0.076 µg/mL (≈ 0.426 µM) and at most 41 µg/mL, respectively. The “Apparent stability constant Kc” value in [3] was 5399 (±52) M^−1; in series [4] it was 3284 (±204) M^−1; in series [5] it was 234 M^−1 and 234 (±35) M^−1. In addition, the “Kc value relative to the lowest one (PYR)” value in series [3] (RAMEB complexes) is given as “about 10 fold”.

`c1ccc2c(c1)-c1cccc3cccc-2c13` [FLT, fluoranthene]: the solubility in [7] is at most 101 µg/mL; in series [8] it was 0.26 µg/mL (≈ 1.29 µM).

On to `c1ccc2c(c1)Cc1ccccc1-2` [FLU, fluorene], for which the “PAHs aqueous solubility (S)” value in series [9] was found to be 1.90 µg/mL. Besides, the “Apparent stability constant Kc” value in series [3] is 2906 (±164) M^−1. Besides, the solubility at 1 week in series [3] (aqueous RAMEB solution) was at most 574 µg/mL.

For the compound `c1ccc2c(c1)ccc1ccccc12` [PHE, phenanthrene], the solubility at 1 week in series [2] was 1.2 µg/mL (≈ 6.73 µM); in [3] (aqueous RAMEB solution), at most 572 µg/mL. The “Apparent stability constant Kc” value in [3] is 4925 (±511) M^−1; in series [4], 3871 (±322) M^−1; in series [5] it was 447 (±17) M^−1. Moreover, the “Kc value relative to that for ACE” value in series [4] (HP-β-CD complexes) was about 6 fold.

`c1cc2ccc3cccc4ccc(c1)c2c34` [PYR, pyrene]: the “Kc with natural γ-CD” value in series [6] (natural γ-CD, [41]) is 250 to 300 M⁻¹.

With hydroxypropyl-γ-CD [HP-γ-CD], in series [1], the “Decreasing order of Se and Kc” value is “PYR>ACE>FLT>PHE>ANT>FLU”.

On to randomly methylated-β-CD [RAMEB], for which, in [1], the “Decreasing order of Se and Kc” value is on record as “ANT>PHE>FLT>FLU>ACE>PYR”; the “Decreasing order of PAHs apparent solubility” value is recorded as “FLU≥PHE>ACE>FLT>ANT>PYR”.

By solubility is commonly meant how much of the substance goes into solution per volume. Read a high solubility as much dissolved substance.
